Consider 15 compounds from paper PMC7497679, “Structure-based design, synthesis, and evaluation of the biological activity of novel phosphoroorganic small molecule IAP antagonists” (Investigational New Drugs, 2020).

Like-named read-outs stand apart in the source and are kept apart here. Square brackets hold non-standard residues; d marks the D form. Ends that are not written are not given here. NMeA = CN[C@@H](C)C(=O)O

The target of the test is T1, XIAP BIR3 domain (Homo sapiens, UniProt P98170).
T1 construct: fluorescent probe 4 and the XIAP BIR3 domain (Sino Biological, Beijing, China) were used for all measurements; purchased Sino Biological, Beijing, China
In words: Fluorescence polarization inhibition (competition) assay. Type of test: binding. The note with it: for inhibition at 50 µM: 0.5 h, antagonist 50 µM, inhibition of protein-probe interaction; for Ki / EC50: XIAP BIR3 50 nM, fluorescent probe 4 2 nM. The method, then:
The fluorescence polarization assay was performed at r.t. in Corning 384-well black, polystyrene flat bottom plates (Corning, NY, USA) on a Synergy H4 Hybrid Reader (BioTek, Bad Friedrichshall, Germany). For fluorescence polarization measurements, (milipolarization units, mP) 484/20 nm excitation and 528/20 nm emission filters were selected. Phosphate buffer (pH 7.5) supplemented with γ-globulin (100 µg/mL) and NaN3 (0.02% w/v), fluorescent probe 4 and the XIAP BIR3 domain (Sino Biological, Beijing, China) were used for all measurements. All experiments were performed in duplicate. The obtained fluorescence polarization assay data were analyzed with Prism 5.0 Software (GraphPad Software, San Diego, ca.).
After a 15 min incubation at r.t., fluorescent probe 4 (2 nM) was added. The values were measured 30 min after the moment the probe was added. The assay was performed in phosphate buffer with a final DMSO concentration of 1.4% (v/v). […] In order to evaluate the quality and precision of the performed screening assay, we determined the Z´ factor as described by Zhang et al.. The obtained fluorescence polarization values were used to determine the percent inhibition, which was plotted as a function of the protein concentration. The EC50 and Ki values were calculated with GraphPad software (log(agonist) vs. response (variable slope) model) in combination with the web tool developed by Nikolovska-Coleska et al..
Fluorescence polarization inhibition assay and data analysis for 41m and 42m compounds was performed as described in the Material and Methods section of the manuscript. Briefly, 50 nM solution of the BIR3 XIAP protein in polarization buffer was added into phosphoroorganic compound solution (from 50 μM to 0.0537 nM). After 15 min incubation at r.t. the fluorescent probe 4 (2 nM) was added.
The values were read after 30 minutes from the moment the probe was added. The obtained fluorescence polarization values were used to determine the percentage of inhibition which was plotted as a function of the protein concentration (Supplementary Figure S4).
(1 picture or pasted object on this page, not shown here)

T1 sequence (P98170 252-356 limits assumed): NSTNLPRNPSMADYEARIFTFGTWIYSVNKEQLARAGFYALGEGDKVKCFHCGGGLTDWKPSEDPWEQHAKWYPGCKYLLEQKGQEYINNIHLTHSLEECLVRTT

Take `CN[C@@H](C)C(=O)N[C@H](C(=O)N1CCC[C@H]1C(=O)NC(CCc1ccccc1)P(=O)(Oc1ccccc1)Oc1ccccc1)C1CCCCC1` (stereo partly drawn) [Compound 44, diphenyl (1-((S)-1-((S)-2-cyclohexyl-2-((S)-2-(methylamino)propanamido)acetyl)pyrrolidine-2-carboxamido)-3-phenylpropyl)phosphonate]: the inhibition at 50 µM was 86.5% and the Ki stood at 7.57 µM. The EC50 (read-out: EC50) was 15.3 µM. The EC50 (read-out: log EC50 (converted)) was 15.3 µM.

Regarding `CN[C@@H](C)C(=O)N[C@H](C(=O)N1CCC[C@H]1C(=O)NCP(=O)(c1ccccc1)c1ccccc1)C(C)C` [Compound 11], the inhibition at 50 µM stood at 63.6% and the Ki came to 14.5 µM. In addition, for the setting “read-out: EC50”, the EC50 stood at 29.3 µM. In addition, the EC50 (read-out: log EC50 (converted)) was 29.4 µM.

In the case of `CCC(NC(=O)[C@@H]1CCCN1C(=O)[C@@H](NC(=O)[C@H](C)NC)C1CCCCC1)P(=O)(Oc1ccccc1)Oc1ccccc1` (stereo partly drawn) [Compound 32, diphenyl (1-((S)-1-((S)-2-cyclohexyl-2-((S)-2-(methylamino)propanamido)acetyl)pyrrolidine-2-carboxamido)propyl)phosphonate], the inhibition at 50 µM was found to be 71% and the Ki worked out at 11.9 µM. Under “read-out: EC50”, the EC50 was 24 µM. Also, the EC50 (read-out: log EC50 (converted)) is 24 µM.

As to `CN[C@@H](C)C(=O)N[C@H](C(=O)N1CCC[C@H]1C(=O)NC(CCSC)P(=O)(Oc1ccccc1)Oc1ccccc1)C(C)C` (some centres unmarked) [Compound 39], the inhibition at 50 µM was found to be 65.8% and the Ki came to 13 µM. Also, the EC50 (read-out: EC50) was found to be 26.2 µM. Besides, the EC50 (read-out: log EC50 (converted)) was 26.2 µM.

On to `CCC(C)C(NC(=O)[C@@H]1CCCN1C(=O)[C@@H](NC(=O)[C@H](C)NC)C1CCCCC1)P(=O)(Oc1ccccc1)Oc1ccccc1` (some centres unmarked) [Compound 36], for which the inhibition at 50 µM amounted to 81.4% and the Ki was 8.05 µM. Besides, the EC50 (read-out: EC50) amounted to 16.2 µM. For the same compound, where the note is “read-out: log EC50 (converted)”, the EC50 was 16.3 µM.

As for `CCC(C)C(NC(=O)[C@@H]1CCCN1C(=O)[C@@H](NC(=O)[C@H](C)NC)C(C)C)P(=O)(Oc1ccccc1)Oc1ccccc1` (some centres unmarked) [Compound 35], the inhibition at 50 µM is 77.4% and the Ki worked out at 8.84 µM. Also, the EC50 (read-out: EC50) is 17.8 µM. Under “read-out: log EC50 (converted)”, the EC50 is 17.8 µM.

On to `CN[C@@H](C)C(=O)N[C@H](C(=O)N1CCC[C@H]1C(=O)NC(C(C)C)P(=O)(Oc1ccccc1)Oc1ccccc1)C(C)C` (stereo partly drawn) [Compound 33, diphenyl (2-methyl-1-((S)-1-((S)-3-methyl-2-((S)-2-(methylamino)propanamido)butanoyl)pyrrolidine-2-carboxamido)propyl)phosphonate], for which the inhibition at 50 µM was determined as 58.5% and the Ki is 17.4 µM. Where the note is “read-out: EC50”, the EC50 stood at 35 µM. Besides, the EC50 (read-out: log EC50 (converted)) was 34.9 µM.

Turning to `CCC(NC(=O)[C@@H]1CCCN1C(=O)[C@@H](NC(=O)[C@H](C)NC)C(C)C)P(=O)(Oc1ccccc1)Oc1ccccc1` (stereo partly drawn) [Compound 31, diphenyl (1-((S)-1-((S)-3-methyl-2-((S)-2-(methylamino)propanamido)butanoyl)pyrrolidine-2-carboxamido)propyl)phosphonate], the inhibition at 50 µM is 57% and the Ki is 18.8 µM. Further, the EC50 (read-out: EC50) came to 38 µM. Further, under “read-out: log EC50 (converted)”, the EC50 is 38 µM.

[NMeA]-Val-Pro-OH [Compound 1]: the “interaction with the XIAP BIR3 domain (in words)” value (fluorescence polarization) is on record as “did not interact with the XIAP BIR3 domain at a significant level”.

`CN[C@@H](C)C(=O)N[C@H](C(=O)N1CCC[C@H]1C(=O)NC(CCSC)P(=O)(Oc1ccccc1)Oc1ccccc1)C1CCCCC1` (stereo partly drawn) [Compound 40, diphenyl (1-((S)-1-((S)-2-cyclohexyl-2-((S)-2-(methylamino)propanamido)acetyl)pyrrolidine-2-carboxamido)-3-(methylthio)propyl)phosphonate]: the inhibition at 50 µM worked out at 73.8% and the Ki worked out at 13 µM. The EC50 (read-out: EC50) came to 26.3 µM. Besides, the EC50 (read-out: log EC50 (converted)) is 26.3 µM.

`CN[C@@H](C)C(=O)N[C@H](C(=O)N1CCC[C@H]1C(=O)NC(CCc1ccccc1)P(=O)(Oc1ccccc1)Oc1ccccc1)C(C)C` (some centres unmarked) [Compound 43]: the inhibition at 50 µM is 85.4%. For the same compound, the EC50 (read-out: EC50) amounted to 17.2 µM. Further, the EC50 (read-out: log EC50 (converted)) was 17.2 µM.

In the case of `CN[C@@H](C)C(=O)N[C@H](C(=O)N1CCC[C@H]1C(=O)NCP(=O)(c1ccc(C)cc1)c1ccc(C)cc1)C(C)C` [Compound 15, (S)-N-((di-p-tolylphosphoryl)methyl)-1-((S)-3-methyl-2-((S)-2-(methylamino)propanamido)butanoyl)pyrrolidine-2-carboxamide], the inhibition at 50 µM is 61.6% and the Ki worked out at 15.3 µM. For the same compound, where the note is “read-out: EC50”, the EC50 came to 30.8 µM. The EC50 (read-out: log EC50 (converted)) was 30.8 µM.

In the case of `CCc1ccc(OP(=O)(Oc2ccc(CC)cc2)C(C)NC(=O)[C@@H]2CCCN2C(=O)[C@@H](NC(=O)[C@H](C)NC)C2CCCCC2)cc1` (some centres unmarked) [Compound 24], the inhibition at 50 µM is 74.1% and the Ki was 10.2 µM. Also, the EC50 (read-out: EC50) was 20.5 µM. The EC50 (read-out: log EC50 (converted)) was 20.6 µM.

In the case of `CN[C@@H](C)C(=O)N[C@H](C(=O)N1CCC[C@H]1C(=O)NCP(=O)(c1cc(C)cc(C)c1)c1cc(C)cc(C)c1)C(C)C` [Compound 20, (S)-N-((bis(3,5-dimethylphenyl)phosphoryl)methyl)-1-((S)-3-methyl-2-((S)-2-(methylamino)propanamido)butanoyl)pyrrolidine-2-carboxamide], the inhibition at 50 µM was 50% and the Ki was determined as 23.8 µM. Moreover, the EC50 (read-out: EC50) is 48 µM. Further, the EC50 (read-out: log EC50 (converted)) is 48 µM.

For the compound `CN[C@@H](C)C(=O)N[C@H](C(=O)N1CCC[C@H]1C(=O)NC(CC(C)C)P(=O)(Oc1ccccc1)Oc1ccccc1)C1CCCCC1` (some centres unmarked) [Compound 38], the inhibition at 50 µM amounted to 84.2% and the Ki came out at 5.25 µM. Also, the EC50 (read-out: EC50) was 10.6 µM. Moreover, for the setting “read-out: log EC50 (converted)”, the EC50 was 10.6 µM.

One may read the inhibition as the share of the control response that was lost under treatment. One may read the Ki as the dissociation constant of the complex between target and ligand, obtained from inhibition or displacement. The EC50 is the midpoint of the concentration-response curve.
